Target: T1, human TREK-1 (Homo sapiens, UniProt O95069)
T1 construct: expressed in transfected cells
T1 sequence (O95069 1-426): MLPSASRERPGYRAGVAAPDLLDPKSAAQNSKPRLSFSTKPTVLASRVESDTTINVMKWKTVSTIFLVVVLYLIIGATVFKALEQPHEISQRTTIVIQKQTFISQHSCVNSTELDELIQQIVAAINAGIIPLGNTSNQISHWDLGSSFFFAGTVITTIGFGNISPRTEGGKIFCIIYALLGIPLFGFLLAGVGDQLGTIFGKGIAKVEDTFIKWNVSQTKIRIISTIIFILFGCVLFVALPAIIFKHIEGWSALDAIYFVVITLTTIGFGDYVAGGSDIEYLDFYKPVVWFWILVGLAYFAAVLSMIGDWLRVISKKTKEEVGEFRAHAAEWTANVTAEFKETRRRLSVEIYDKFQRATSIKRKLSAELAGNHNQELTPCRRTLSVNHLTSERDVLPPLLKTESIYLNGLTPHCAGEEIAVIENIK
Assay: TREK-1 Thallium (Tl+) flux assay, Method 1
Format: cell-based
Conditions: TREK-1 Thallium (Tl+) flux assay; no *^12 (Method 2) mark on these rows
Summary of the method: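 Readout: Thallos fluorescence ratio, taken 25 s post-thallium relative to the pre-thallium baseline average, then converted to % inhibition. Cells were CHO-K1 stably expressing human TREK-1, dye-loaded and exposed to test compound (vehicle 0.3% DMSO) for 10 min prior to thallium stimulation.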

Row | IC50 [µM] | SMILES
1 | 0.48 | Cc1cc(C#Cc2ccccc2)cnc1NC(=O)c1c(Cl)cnn1C1CCCN(C(=O)OC(C)(C)C)CC1 (centres unmarked) [Compound 277, tert-butyl 4-(4-chloro-5-((3-methyl-5-(phenylethynyl)pyridin-2-yl)carbamoyl)-1H-pyrazol-1-yl)azepane-1-carboxylate]
2 | 0.49 | CC1(Cn2ncc(Cl)c2C(=O)Nc2ncc(C#Cc3ccccc3)cc2F)CCCO1 (centres unmarked) [Compound 279, 4-chloro-N-(3-fluoro-5-(phenylethynyl)pyridin-2-yl)-1-((2-methyltetrahydrofuran-2-yl)methyl)-1H-pyrazole-5-carboxamide]
3 | 0.49 | Cc1cc(C#Cc2ccccc2)cnc1NC(=O)c1c(Cl)cnn1[C@H]1C[C@@H]2CN(C(=O)C3CC3)C[C@@H]2C1 [Compound 282, 4-chloro-1-[(3aR,5s,6aS)-2-(cyclopropanecarbonyl)octahydro-cyclopenta[c]pyrrol-5-yl]-N-[3-methyl-5-(phenylethynyl)pyridin-2-yl]-1H-pyrazole-5-carboxamide]
4 | 0.5 | Cc1cc(C#Cc2ccccc2)cnc1NC(=O)c1c(Cl)cnn1C1CN(C(=O)OC(C)(C)C)C1 [Compound 287, tert-butyl 3-(4-chloro-5-((3-methyl-5-(phenylethynyl)pyridin-2-yl)carbamoyl)-1H-pyrazol-1-yl)azetidine-1-carboxylate]
5 | 0.5 | CC(C)C(=O)N1CCC[C@H](Cn2ncc(Cl)c2C(=O)Nc2ncc(C#Cc3ccccc3)cc2F)C1 [Compound 288, (S)-4-chloro-N-(3-fluoro-5-(phenylethynyl)pyridin-2-yl)-1-((1-isobutyrylpiperidin-3-yl)methyl)-1H-pyrazole-5-carboxamide]
6 | 0.51 | Cc1cc(C#Cc2ccccc2)cnc1NC(=O)c1c(Cl)cnn1C1CCC(C#N)C1 (centres unmarked) [Compound 289, 4-chloro-1-(3-cyanocyclopentyl)-N-(3-methyl-5-(phenylethynyl)pyridin-2-yl)-1H-pyrazole-5-carboxamide]
7 | 0.51 | CC(C)(C)OC(=O)N1CCC(CCn2ncc(Cl)c2C(=O)Nc2ncc(C#Cc3ccccc3)cc2F)CC1 [Compound 290, tert-butyl 4-(2-(4-chloro-5-((3-fluoro-5-(phenylethynyl)pyridin-2-yl)carbamoyl)-1H-pyrazol-1-yl)ethyl)piperidine-1-carboxylate]
8 | 0.52 | Cc1cc(C#Cc2ccccc2)cnc1NC(=O)c1c(Cl)cnn1[C@@H]1CC[C@@H](NC(=O)OC(C)(C)C)C1 [Compound 291, tert-butyl ((1R,3R)-3-(4-chloro-5-((3-methyl-5-(phenylethynyl)pyridin-2-yl)carbamoyl)-1H-pyrazol-1-yl)cyclopentyl)carbamate]
9 | 0.53 | CC(C)(C)OC(=O)N[C@H]1CC[C@@H](n2ncc(Cl)c2C(=O)Nc2ncc(C#Cc3ccccc3)cc2F)CC1 [Compound 294, tert-butyl (cis-4-(4-chloro-5-((3-fluoro-5-(phenylethynyl)pyridin-2-yl)carbamoyl)-1H-pyrazol-1-yl)cyclohexyl)carbamate]
10 | 0.53 | Cc1cc(C#Cc2ccccc2)cnc1NC(=O)c1c(Cl)cnn1CC1(C)CCN(C(=O)C2CC2)CC1 [Compound 295]
11 | 0.53 | CC(=O)N1CCC[C@H](Cn2ncc(Cl)c2C(=O)Nc2ncc(C#Cc3ccccc3)cc2C)C1 [Compound 296, (S)-1-((1-acetylpiperidin-3-yl)methyl)-4-chloro-N-(3-methyl-5-(phenylethynyl)pyridin-2-yl)-1H-pyrazole-5-carboxamide]
12 | 0.54 | CC(C)(C)OC(=O)N1CCC(n2ncc(Cl)c2C(=O)Nc2c(F)cc(C#Cc3ccccc3)cc2F)C1 (centres unmarked) [Compound 297, tert-butyl 3-(4-chloro-5-((2,6-difluoro-4-(phenyethynyl)phenyl)carbamoyl)-1H-pyrazol-1-yl)pyrroldine-1-carboxylate]
13 | 0.54 | Cc1cc(C#Cc2ccccc2)cnc1NC(=O)c1c(Cl)cnn1[C@H]1CCN(C(=O)OC(C)(C)C)C1 [Compound 298, tert-butyl (S)-3-(4-chloro-5-((3-methyl-5-(phenylethynyl)pyridin-2-yl)carbamoyl)-1H-pyrazol-1-yl)pyrrolidine-1-carboxylate]
14 | 0.54 | O=C(Nc1ncc(C#Cc2ccccc2)cc1F)c1c(Cl)cnn1C1CCN(C(=O)C2CCCC2)CC1 [Compound 299, 4-chloro-1-(1-(cyclopentanecarbonyl)piperidin-4-yl)-N-(3-fluoro-5-(phenylethynyl)pyridin-2-yl)-1H-pyrazole-5-carboxamide]
15 | 0.54 | CC(C)(C)OC(=O)N1CCOC(Cn2ncc(Cl)c2C(=O)Nc2ncc(C#Cc3ccccc3)cc2F)C1 (centres unmarked) [Compound 300, tert-butyl 2-((4-chloro-5-((3-fluoro-5-(phenylethynyl)pyridin-2-yl)carbamoyl)-1H-pyrazol-1-yl)methyl)morpholine-4-carboxylate]

Second part, the molecule before the results:

Row | SMILES | IC50 [µM]
16 | Cc1cc(C#Cc2ccccc2)cnc1NC(=O)c1c(Cl)cnn1CC(C)(C)C#N [Compound 276, 4-chloro-1-(2-cyano-2-methylpropyl)-N-(3-methyl-5-(phenylethynyl)pyridin-2-yl)-1H-pyrazole-5-carboxamide] | 0.48
17 | Cc1cc(C#Cc2ccccc2)cnc1NC(=O)c1c(Cl)cnn1CC1CC1 [Compound 278, 4-chloro-1-(cyclopropylmethyl)-N-(3-methyl-5-(phenylethynyl)pyridin-2-yl)-1H-pyrazole-5-carboxamide] | 0.49
18 | Cc1cc(C#Cc2ccccc2)cnc1NC(=O)c1c(Cl)cnn1CC1CCCOC1 (centres unmarked) [Compound 280, 4-chloro-N-(3-methyl-5-(phenylethynyl)pyridin-2-yl)-1-((tetrahydro-2H-pyran-3-yl)methyl)-1H-pyrazole-5-carboxamide] | 0.49
19 | Cc1cc(C#Cc2ccccc2)cnc1NC(=O)c1c(Cl)cnn1CC1COCC1C (centres unmarked) [Compound 281, 4-chloro-N-(3-methyl-5-(phenylethynyl)pyridin-2-yl)-1-((4-methyltetrahydrofuran-3-yl)methyl)-1H-pyrazole-5-carboxamide] | 0.49
20 | Cc1cc(C#Cc2ccccc2)cnc1NC(=O)c1c(Cl)cnn1-c1ccc2c(c1)OCO2 [Compound 283, 1-(benzol[d][1,3]dioxol-5-yl)-4-chloro-N-(3-methyl-5-(phenylethynyl)pyridin-2-yl)-1H-pyrazole-5-carboxamide] | 0.49
21 | Cc1cc(C#Cc2ccc(F)cc2)cnc1NC(=O)c1c(Cl)cnn1CC1CCN(C(=O)C(C)C)CC1C (centres unmarked) [Compound 284, 4-chloro-N-(5-((4-fluorophenyl)ethynyl)-3-methylpyridin-2-yl)-1-((1-isobutyryl-3-methylpiperidin-4-yl)methyl)-1H-pyrazole-5-carboxamide] | 0.49
22 | Cc1cc(C#Cc2ccccc2)cc(F)c1NC(=O)c1c(Cl)cnn1C[C@H]1COCCO1 [Compound 285, (S)-1-((1,4-dioxan-2-yl)methyl)-4-chloro-N-(2-fluoro-6-methyl-4-(phenylethynyl)phenyl)-1H-pyrazole-5-carboxamide] | 0.5
23 | Cc1cc(C#Cc2cccc(F)c2)cnc1NC(=O)c1c(Cl)cnn1C[C@H]1COCCO1 [Compound 286, (S)-1-((1,4-dioxan-2-yl)methyl)-4-chloro-N-(5-((3-fluorophenyl)ethynyl)-3-methylpyridin-2-yl)-1H-pyrazole-5-carboxamide] | 0.5
24 | Cc1cc(C#Cc2ccccc2)cnc1NC(=O)c1c(Cl)cnn1[C@H]1C[C@H](NC(=O)OC(C)(C)C)C1 [Compound 292, tert-butyl (trans-3-(4-chloro-5-((3-methyl-5-(phenylethynyl)pyridin-2-yl)carbamoyl)-1H-pyrazol-1-yl)cyclobutyl)carbamate] | 0.52
25 | Cc1cc(C#Cc2ccc(F)cc2)cnc1NC(=O)c1c(Cl)cnn1C[C@@H]1CCN(C(=O)C(C)C)C[C@H]1F [Compound 293, 4-chloro-1-(((3S,4S)-3-fluoro-1-isobutyrylpiperidin-4-yl)methyl)-N-(5-((4-fluorophenyl)ethynyl)-3-methylpyridin-2-yl)-1H-pyrazole-5-carboxamide] | 0.52
26 | Cc1cc(C#Cc2ccccc2)cnc1NC(=O)c1c(Cl)cnn1CC1(C)CCN(C(=O)OC(C)(C)C)CC1 [Compound 301, tert-butyl 4-((4-chloro-5-((3-methyl-5-(phenylethynyl)pyridin-2-yl)carbamoyl)-1H-pyrazol-1-yl)methyl)-4-methylpiperidine-1-carboxylate] | 0.54
27 | Cc1cc(C#Cc2ccc(F)cc2)cnc1NC(=O)c1c(Cl)cnn1CC1(F)CCN(C(=O)C2CC2)CC1 [Compound 302, 4-chloro-1-((1-(cyclopropanecarbonyl)-4-fluoropiperidin-4-yl)methyl)-N-(5-((4-fluorophenyl)ethynyl)-3-methylpyridin-2-yl)-1H-pyrazole-5-carboxamide] | 0.55
28 | CC(=O)N1CCN(CCn2ncc(Cl)c2C(=O)Nc2ncc(C#Cc3ccccc3)cc2C)CC1 [Compound 303, 1-(2-(4-acetylpiperazin-1-yl)ethyl)-4-chloro-N-(3-methyl-5-(phenylethynyl)pyridin-2-yl)-1H-pyrazole-5-carboxamide] | 0.56
29 | Cc1cc(C#Cc2ccccc2)cnc1NC(=O)c1c(Cl)cnn1-c1ccc2occc2c1 [Compound 304, 1-(benzofuran-5-yl)-4-chloro-N-(3-methyl-5-(phenylethynyl)pyridin-2-yl)-1H-pyrazole-5-carboxamide] | 0.57

From patent US20240182445A1 (ONO PHARMACEUTICAL CO., LTD., priority 2019, published 2024)
